Experimental data taken from ChEMBL document CHEMBL1201862, “PubChem BioAssay data set” (2004).
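Dose response: 5 concentrations. Exposure: 48 h. Format: 96-well plates. Endpoint: linear interpolation; highest concentration if not reached. Abbreviation: GI50, concentration required for 50% inhibition of growth.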 Calls of active or inactive are those of the source. No stated cut-off is given here; in the data, active = GI50 up to about 1.1 µM and inactive = higher.

Experiments:
Assay in all cases: growth of human tumour cells (NCI), 48 h
[1] = test system: HCC 2998
[2] = test system: SNB-75
[3] = test system: MOLT-4
[4] = test system: NCI-H23
[5] = test system: MDA-MB-231
[6] = test system: OVCAR-3
[7] = test system: HCT-116
[8] = test system: SK-OV-3
[9] = test system: MCF7
[10] = test system: SNB-19
[11] = test system: M14
[12] = test system: NCI-H460
[13] = test system: SR
[14] = test system: UACC-62
[15] = test system: 786-0
[16] = test system: HT-29
[17] = test system: Malme-3M
[18] = test system: OVCAR-8
[19] = test system: K562
[20] = test system: SF-539
[21] = test system: SW-620
[22] = test system: ACHN
[23] = test system: DU-145
[24] = test system: HL-60
[25] = test system: A498
[26] = test system: SK-MEL-5
[27] = test system: T47D
[28] = test system: Hs-578T
[29] = test system: HOP-92
[30] = test system: EKVX
[31] = test system: SK-MEL-28
[32] = test system: PC-3
[33] = test system: U-251
[34] = test system: COLO 205
[35] = test system: NCI-H522
[36] = test system: OVCAR-5
[37] = test system: CAKI-1
[38] = test system: A549
[39] = test system: HOP-62
[40] = test system: SN12C
[41] = test system: SK-MEL-2
[42] = test system: UACC-257
[43] = test system: SF-295
[44] = test system: RPMI-8226
[45] = test system: MDA-MB-435
[46] = test system: NCI/ADR-RES
[47] = test system: BT-549
[48] = test system: MDA-N
[49] = test system: HCT-15
[50] = test system: TK-10
[51] = test system: RXF 393
[52] = test system: LOX IMVI
[53] = test system: CCRF-CEM
[54] = test system: IGROV-1
[55] = test system: UO-31
[56] = test system: KM12
[57] = test system: SF-268
[58] = test system: OVCAR-4
[59] = test system: NCI-H226

**Q.** What does the source list for CCN(CC)CCCNc1nnc(C)c2[nH]c3ccccc3c12?
**A.** GI50 [1]: 9.95 µM (inactive); GI50 [2]: 18.3 µM (inactive); GI50 [3]: 4.1 µM (inactive); GI50 [4]: 15.5 µM (inactive); GI50 [5]: 11.4 µM (inactive); GI50 [6]: 11.7 µM (inactive); GI50 [7]: 5.36 µM (inactive); GI50 [8]: 11 µM (inactive); GI50 [9]: 3.61 µM (inactive); GI50 [10]: 19.3 µM (inactive); GI50 [11]: 16 µM (inactive); GI50 [12]: 8.13 µM (inactive); GI50 [13]: 7.13 µM (inactive); GI50 [14]: 13.7 µM (inactive); GI50 [15]: 18.2 µM (inactive); GI50 [16]: 6.49 µM (inactive); GI50 [17]: 15.1 µM (inactive); GI50 [18]: 7.93 µM (inactive); GI50 [19]: 10.1 µM (inactive); GI50 [20]: 2.28 µM (inactive); GI50 [21]: 9.2 µM (inactive); GI50 [22]: 18 µM (inactive); GI50 [23]: 18.9 µM (inactive); GI50 [24]: 3.28 µM (inactive); GI50 [25]: 17.2 µM (inactive); GI50 [26]: 14.6 µM (inactive); GI50 [27]: 12.7 µM (inactive); GI50 [28]: 15.4 µM (inactive); GI50 [29]: 6.9 µM (inactive); GI50 [30]: 18.7 µM (inactive); GI50 [31]: 18.7 µM (inactive); GI50 [32]: 12.1 µM (inactive); GI50 [33]: 13.4 µM (inactive); GI50 [34]: 2.7 µM (inactive); GI50 [35]: 5.7 µM (inactive); GI50 [36]: 19.6 µM (inactive); GI50 [37]: > 100 µM (inactive); GI50 [38]: 17.8 µM (inactive); GI50 [39]: 7.31 µM (inactive); GI50 [40]: 12.7 µM (inactive); GI50 [41]: 15.2 µM (inactive); GI50 [42]: 15.1 µM (inactive); GI50 [43]: 20.8 µM (inactive); GI50 [44]: 23.5 µM (inactive); GI50 [45]: 11.6 µM (inactive); GI50 [46]: > 100 µM (inactive); GI50 [47]: 21.6 µM (inactive); GI50 [48]: 13.7 µM (inactive); GI50 [49]: > 100 µM; GI50 [50]: 20.2 µM (inactive); GI50 [51]: 17.7 µM (inactive); GI50 [52]: 7.46 µM (inactive); GI50 [53]: 4.42 µM (inactive); GI50 [54]: 12.1 µM (inactive); GI50 [55]: 37.2 µM (inactive); GI50 [56]: 11.4 µM (inactive); GI50 [57]: 8.73 µM (inactive)

**Q.** With O=[N+]([O-])c1cc(Br)cc2cc(Cl)cnc12 as the molecule, how does the GI50 [1] read?
**A.** Its GI50 is > 100 µM (inactive).

**Q.** What about the GI50 [2] of the same molecule?
**A.** The GI50 was 31.8 µM (inactive).

**Q.** What about the GI50 [3] of the same molecule?
**A.** Its GI50 is > 100 µM (inactive).

**Q.** And the GI50 [4]?
**A.** Its GI50 is > 100 µM (inactive).

**Q.** What about the GI50 [5] of the same molecule?
**A.** The GI50 was > 100 µM (inactive).

**Q.** What about the GI50 [6] of the same molecule?
**A.** Its GI50 is > 100 µM (inactive).

**Q.** And the GI50 [7]?
**A.** The GI50 was > 100 µM (inactive).

**Q.** What about the GI50 [8] of the same molecule?
**A.** The GI50 was 86.9 µM (inactive).

**Q.** What about the GI50 [9] of the same molecule?
**A.** Its GI50 is 35.5 µM (inactive).

**Q.** And the GI50 [10]?
**A.** Its GI50 is > 100 µM (inactive).

**Q.** What about the GI50 [11] of the same molecule?
**A.** Its GI50 is > 100 µM (inactive).

**Q.** And the GI50 [12]?
**A.** The GI50 was > 100 µM (inactive).

**Q.** And the GI50 [13]?
**A.** Its GI50 is > 100 µM (inactive).

**Q.** And the GI50 [14]?
**A.** Its GI50 is 61.4 µM (inactive).

**Q.** And the GI50 [15]?
**A.** Its GI50 is > 100 µM (inactive).

**Q.** And the GI50 [16]?
**A.** Its GI50 is > 100 µM (inactive).

**Q.** What about the GI50 [17] of the same molecule?
**A.** The GI50 was > 100 µM (inactive).

**Q.** And the GI50 [18]?
**A.** The GI50 was 62.4 µM (inactive).

**Q.** What about the GI50 [19] of the same molecule?
**A.** The GI50 was > 100 µM (inactive).

**Q.** What about the GI50 [20] of the same molecule?
**A.** The GI50 was > 100 µM (inactive).

**Q.** What about the GI50 [21] of the same molecule?
**A.** Its GI50 is 14.5 µM (inactive).

**Q.** And the GI50 [22]?
**A.** Its GI50 is > 100 µM (inactive).

**Q.** What about the GI50 [23] of the same molecule?
**A.** Its GI50 is > 100 µM (inactive).

**Q.** What about the GI50 [24] of the same molecule?
**A.** Its GI50 is 57.8 µM (inactive).

**Q.** And the GI50 [25]?
**A.** Its GI50 is 75.7 µM (inactive).

**Q.** And the GI50 [26]?
**A.** The GI50 was 81.8 µM (inactive).

**Q.** What about the GI50 [27] of the same molecule?
**A.** Its GI50 is 39.8 µM (inactive).

**Q.** And the GI50 [28]?
**A.** Its GI50 is 36.9 µM (inactive).

**Q.** What about the GI50 [29] of the same molecule?
**A.** Its GI50 is 1.02 µM (active).

**Q.** And the GI50 [30]?
**A.** Its GI50 is > 100 µM (inactive).

**Q.** What about the GI50 [31] of the same molecule?
**A.** Its GI50 is > 100 µM (inactive).

**Q.** And the GI50 [32]?
**A.** Its GI50 is > 100 µM (inactive).

**Q.** What about the GI50 [33] of the same molecule?
**A.** The GI50 was > 100 µM (inactive).

**Q.** And the GI50 [58]?
**A.** Its GI50 is > 100 µM (inactive).

**Q.** And the GI50 [34]?
**A.** Its GI50 is > 100 µM (inactive).

**Q.** And the GI50 [35]?
**A.** The GI50 was > 100 µM (inactive).

**Q.** And the GI50 [36]?
**A.** The GI50 was > 100 µM (inactive).

**Q.** And the GI50 [37]?
**A.** The GI50 was > 100 µM (inactive).

**Q.** And the GI50 [38]?
**A.** The GI50 was > 100 µM (inactive).

**Q.** And the GI50 [39]?
**A.** Its GI50 is > 100 µM (inactive).

**Q.** What about the GI50 [40] of the same molecule?
**A.** The GI50 was > 100 µM (inactive).

**Q.** And the GI50 [42]?
**A.** The GI50 was > 100 µM (inactive).

**Q.** And the GI50 [43]?
**A.** The GI50 was 70.6 µM (inactive).

**Q.** What about the GI50 [44] of the same molecule?
**A.** The GI50 was > 100 µM (inactive).

**Q.** And the GI50 [45]?
**A.** Its GI50 is > 100 µM (inactive).

**Q.** And the GI50 [46]?
**A.** Its GI50 is > 100 µM (inactive).

**Q.** What about the GI50 [47] of the same molecule?
**A.** The GI50 was 72.4 µM (inactive).

**Q.** What about the GI50 [48] of the same molecule?
**A.** The GI50 was > 100 µM (inactive).

**Q.** And the GI50 [49]?
**A.** Its GI50 is over 100 µM.

**Q.** And the GI50 [50]?
**A.** Its GI50 is > 100 µM (inactive).

**Q.** What about the GI50 [59] of the same molecule?
**A.** The GI50 was > 100 µM (inactive).

**Q.** What about the GI50 [51] of the same molecule?
**A.** The GI50 was 71.8 µM (inactive).

**Q.** What about the GI50 [52] of the same molecule?
**A.** The GI50 was 82.6 µM (inactive).

**Q.** And the GI50 [53]?
**A.** Its GI50 is > 100 µM (inactive).

**Q.** What about the GI50 [54] of the same molecule?
**A.** Its GI50 is 10.1 µM (inactive).

**Q.** And the GI50 [55]?
**A.** Its GI50 is > 100 µM (inactive).

**Q.** And the GI50 [56]?
**A.** Its GI50 is > 100 µM (inactive).

**Q.** What about the GI50 [57] of the same molecule?
**A.** Its GI50 is 89.9 µM (inactive).
